These results are taken from patent US20250101062A1, “ANTIMICROBIAL PEPTIDES” (Board of Regents of the University of Nebraska, priority 2023, published 2025).

In one experiment the test system is S. aureus USA300 LAC. In words: microbe, parasite or virus in culture. It is filed as cell-based, Staphylococcus aureus. The note with it: for MIC: Staphylococcus aureus; for change of MIC / activity / Antimicrobial activity (MIC): MRSA in MHB; for change of MIC / activity: 10% human serum. As for the experimental part:
The following resistant bacterial clinical strains were used in this study: S. aureus USA300 LAC, S. epidermidis 1457, E. coli E423-17, P. aeruginosa E411-17, K. pneumoniae E406-17, and A. baumannii B28-16. While the S. aureus USA300 strain is methicillin-resistant, most of the Gram-negative bacteria contain extended-spectrum beta-lactamase and are resistant to beta-lactam antibiotics. Peptide activity against bacteria was tested using an established lab protocol (Mishra, et al. (2017) Acta Biomater., 49:316-328). In brief, a peptide concentration gradient with twofold dilution was made in the 96-well polystyrene microplate at 10 μL per well. Bacteria were grown to the exponential phase (i.e., optical density at 600 nm≈0.5), diluted to ˜10^5 CFU/mL in different percentages of MHB, TSB, or LB, and partitioned into the 96-well microplate at 90 μL per well. […] They were diluted with autoclaved distilled water to obtain different percentages. The microplates were incubated at 37° C. overnight and read on a ChroMate™ 4300 microplate reader at 600 nm (GMI, Ramsey, MN). The peptide concentration in the wells without bacterial growth is the MIC. As is the convention, MIC values were represented as ranges.
For pH effects on peptide activity, the pH of the medium was adjusted to a targeted pH for the autoclave and then remeasured at room temperature. For salt and serum effects on peptide activity, stock NaCl solution or human serum was added to the media.
Peptide activity against bacteria were tested using the CLSI standard procedure with minor modifications (Clinical and Laboratory Standards Institute (2018) Performance standards for antimicrobial susceptibility testing, 9th ed.; Mishra, et al. (2019) Proc. Natl. Acad. Sci., 116(27):13517-13522). In brief, a peptide concentration gradient with twofold dilution was made in the 96-well polystyrene microplate at 10 μL per well. Bacteria were grown to the exponential phase (i.e., optical density at 600 nm≈0.5), diluted to ˜10^5 CFU/mL in MHB, and partitioned into the 96-well microplate at 90 μL per well. The microplates were incubated at 37° C. overnight and read on a ChroMate® 4300 Microplate Reader at 600 nm (GMI, Ramsey, MN). The peptide concentration in the wells without bacterial growth is the minimal inhibitory concentration (MIC). As the convention, MIC values were represented as ranges.
For pH effects on peptide activity, the pH of the medium was adjusted to a targeted pH for autoclave and then remeasured at room temperature. For salt and serum effects on peptide activity, stock NaCl solution or human serum were added to the media.

Experiment [1] is described as follows: Effect of MHB dilution on antibacterial activity of a panel of antibiotics. The class given is cell-based. The note with it: MHB from 100 to 12.5%. How it is done:
FIGS. 2A-2D show biofilm disruption activity of human LL-37 (FIGS. 2A and 2B) and 17BIPHE2 (FIGS. 2C and 2D) against the 24 hour preformed biofilms of S. aureus USA300 LAC in different MHB media: 12.5% MHB (FIGS. 2A and 2C) and 100% MHB (FIGS. 2B and 2D). FIGS. 2E-2H show the treatment outcome of LL-37 (FIGS. 2E and 2F) and 17BIPHE2 (FIGS. 2G and 2H) against the 24-hour preformed biofilms of E. coli E423-17 in different MHB media: 12.5% MHB (FIGS. 2E and 2G) and 100% MHB (FIGS. 2F and 2H). […] Growth curves of S. aureus USA 300 LAC (FIGS. 2J-2K) and P. aeruginosa 152 (FIGS. 2L-2M) in 12.5%, 25%, 50% and 100% MHB or TSB medium (curves from bottom to top).
The effects of MHB dilution on the antimicrobial activity of a panel of antibiotics was also compared (FIG. 2I).

The test system of another experiment is E. coli. Conditions: data from the antimicrobial peptide database; cited from earlier work.
[2] abbreviates: MRSA / USA300, pH 6.3, MRSA in MHB, pH 6.3, read-out: Antimicrobial activity (MIC).
Setting [3] is: MRSA / USA300, pH 7.2, MRSA in MHB, pH 7.2, read-out: Antimicrobial activity (MIC).
Setting [4] is: MRSA / USA300, MRSA in MHB, 20% serum, read-out: Antimicrobial activity (MIC).

Converted amounts (≈) assume the structure as drawn. Where two headings read alike, the source gives them in different places.

In the case of `CN[C@H](CC(C)C)C(=O)N[C@H]1C(=O)N[C@@H](CC(N)=O)C(=O)N[C@H]2C(=O)N[C@H]3C(=O)N[C@H](C(=O)N[C@H](C(=O)O)c4cc(O)cc(O)c4-c4cc3ccc4O)[C@H](O)c3ccc(c(Cl)c3)Oc3cc2cc(c3O[C@@H]2O[C@H](CO)[C@@H](O)[C@H](O)[C@H]2O[C@H]2C[C@](C)(N)[C@H](O)[C@H](C)O2)Oc2ccc(cc2Cl)[C@H]1O` [Vancomycin], the MIC in the experiment with S. aureus USA300 LAC (MRSA / USA300, pH 6.3, read-out: Antimicrobial activity (MIC), MRSA in MHB, pH 6.3) was 0.5 µM (≈ 0.725 µg/mL); with S. aureus USA300 LAC (MRSA / USA300, pH 7.2, read-out: Antimicrobial activity (MIC), MRSA in MHB, pH 7.2), 0.5 µM (≈ 0.725 µg/mL); in the experiment with S. aureus USA300 LAC (MRSA / USA300, read-out: Antimicrobial activity (MIC), MRSA in MHB, 10% serum) it was 0.5 µM (≈ 0.725 µg/mL); in the experiment on S. aureus USA300 LAC (MRSA / USA300, read-out: Antimicrobial activity (MIC), MRSA in MHB, 20% serum) it was 0.5 to 1 µM (≈ 0.725 to 1.45 µg/mL); in the experiment with S. aureus USA300 LAC (MRSA / USA300, read-out: Antimicrobial activity (MIC), MRSA in MHB, NaCl (150 mM)), 0.5 to 1 µM (≈ 0.725 to 1.45 µg/mL). The “change in MIC with dilution of MHB” value in experiment [1] is “essentially no changes”.
Consider “GIWSSIKNLASKAWNSDIGQSLRNKAAGAINKFVADKIGVTPSQAAS (vaejovis mexicanus) [Vejovine]”, for which the “MIC against E. coli” value in the experiment on E. coli was 4.4 to 20 µM.
Consider “RWKIFKKIEKVGQNIRDGIVKAGPAVAVVGQAATI (listed as Bombyx mori) [CM4]”, for which the “MIC against E. coli” value with E. coli is 12 µM.
Consider “GGLKKLGKKLEGAGKRVFKASEKALPVVVGIKAIGK (listed as Aedes aegypti) [Aedesin]”, for which the “MIC against E. coli” value with E. coli is 2 to 4 µg/mL.
As to “RWKIFKRIEKVGRNVRDGVIKAGPAVAVLGQAKALGK (listed as Phyllodes eyndhovii) [Peyn-cec]”, the “MIC against E. coli” value in the experiment on E. coli is 8 µg/mL.
For the molecule “NGNLLGGLLRPVLGVVKGLTGGLGKK (Pleurodema thaul) [Thaulin-1]”, in the experiment with E. coli, the “MIC against E. coli” value is 62.5 µg/mL.
Turning to “GVFDIIKGAGKQLIARAMGKIAEKVGLNKDGN (listed as Leptodactylus pustulatus) [Ocellatin-PT8]”, the “MIC against E. coli” value in the experiment with E. coli was 60 µM.
Regarding `C/C(=C\C(=O)OCCCCCCCCC(=O)O)C[C@@H]1OC[C@H](C[C@@H]2O[C@H]2[C@@H](C)[C@H](C)O)[C@@H](O)[C@H]1O` [Muporicin], the “change of MIC / activity” value in the experiment on S. aureus USA300 LAC was “fourfold”. Besides, the “Antimicrobial activity (MIC)” value with S. aureus USA300 LAC (10% serum) was found to be 4 µM; with S. aureus USA300 LAC (20% serum), 4 µM; in the experiment with S. aureus USA300 LAC (NaCl (150 mM)) it was 1 µM; in the experiment with S. aureus USA300 LAC (pH 6.3), 0.5 µM; in the experiment with S. aureus USA300 LAC (pH 7.2), 1 µM. Besides, the “change in MIC with dilution of MHB” value in experiment [1] was “essentially no changes”.
Regarding “KWKFGKKLERIGQNVFRAAEKVLPVATGYAQLPATLAGAKQG (listed as Panorpa sp.) [Pvul-cec]”, the “MIC against E. coli” value with E. coli is 8 µg/mL.
As for `NC[C@H]1O[C@H](O[C@H]2[C@H](O)[C@@H](O[C@H]3O[C@H](CO)[C@@H](O)[C@H](N)[C@H]3O)[C@H](N)C[C@@H]2N)[C@H](N)C[C@@H]1O` [Tobramycin], the MIC was 2 to 4 µM (≈ 0.935 to 1.87 µg/mL) in the experiment with S. aureus USA300 LAC (MRSA / USA300, MRSA in MHB, 10% serum, read-out: Antimicrobial activity (MIC)); 4 µM (≈ 1.87 µg/mL) in the experiment with S. aureus USA300 LAC (setting [2]); 2 µM (≈ 0.935 µg/mL) in the experiment on S. aureus USA300 LAC (setting [3]). Also, the “change in MIC with dilution of MHB” value in experiment [1] is “essentially no changes”.
`CC(=O)NC[C@H]1CN(c2ccc(N3CCOCC3)c(F)c2)C(=O)O1` [Linezolid]: the MIC in the experiment with S. aureus USA300 LAC (setting [4]) is 8 to 16 µM (≈ 2.7 to 5.4 µg/mL); with S. aureus USA300 LAC (MRSA / USA300, MRSA in MHB, NaCl (150 mM), read-out: Antimicrobial activity (MIC)), 8 µM (≈ 2.7 µg/mL). Besides, the “change in MIC with dilution of MHB” value in experiment [1] is “essentially no changes”.
On to `NCC[C@H](O)C(=O)N[C@@H]1C[C@H](N)[C@@H](O[C@H]2O[C@H](CN)[C@@H](O)[C@H](O)[C@H]2O)[C@H](O)[C@H]1O[C@H]1O[C@H](CO)[C@@H](O)[C@H](N)[C@H]1O` [Amikacin], for which, in the experiment on S. aureus USA300 LAC, the “change of MIC / activity” value is given as “fourfold”. Moreover, the MIC with S. aureus USA300 LAC (setting [4]) is 32 to 64 µM (≈ 18.7 to 37.5 µg/mL); with S. aureus USA300 LAC (setting [2]), 32 µM (≈ 18.7 µg/mL); in the experiment on S. aureus USA300 LAC (setting [3]) it was 8 µM (≈ 4.68 µg/mL). The “change in MIC with dilution of MHB” value in experiment [1] is recorded as “small changes in MIC values”.
